Measurements: patent US10166270B2, “Composition and method for affecting cytokines and NF-κB” (priority 2004, dated 2019)

How the values were obtained:
[1] = test system: carrageenan-induced paw edema; assay: Carrageenan-induced paw edema; assay type: in vivo, rat
Excerpt: The carrageenan-induced paw edema assay was used as an in vivo indicator of the anti-inflammatory effects of the phyto-percolate. Carrageenan induces local inflammation and edema when injected into the paw pad of a rat (Di Rosa et al., 1971). The development of paw edema is believed to be biphasic (Vinegar et al., 1969). The initial phase is attributable to the local release of histamine and serotonin (Crunkhon et al., 1971) and the second phase is caused by prostaglandin release as a result of COX activation. […] Each treatment group is compared to control.

IL-2 = assay: ELISA of cytokine secretion by PBMC: IL-2; assay type: cell-based, human; conditions: PMA added to cultured PBMC (with ionomycin)
Experimental: (§1) According to this exemplary embodiment, phyto-percolate and the flow-through/F4 were tested as they appeared in their original concentrations right off the columns, only diluted 1:20 and 1:100 as described herein. The culture of peripheral blood mononuclear cells (“PBMC”) is prepared with two vials of frozen PBMCs that were obtained from normal healthy human subjects by a commercial vendor and were added to 2×10 ml medium and centrifuged. PBMCs were resuspended and cultured in RPMI1640/5% FBS for 24 h. (1 vial of frozen cells in 11 ml medium).
(§2) Treatment agents for this exemplary method comprise three agents: unseparated phyto-percolate (‘PAZ’), fraction 3 (‘F3’), fraction 4 (‘F4’). Treatment concentration for each was 1:20 & 1:100. […]
(§3) According to this exemplary embodiment, seeding, treatment, and detection is accomplished by the following steps. Two dishes of PBMCs were combined and the small amount of PBMCs was stained with 0.4% Trypan blue and the cell number of PBMCs was counted using known techniques.
(§4) In this embodiment, an enzyme linked immunosorbent assay (“ELISA”) analysis of inflammatory cytokine secretion, a protocol provided in a commercial kit for the parallel quantification of the production of human cytokines was employed. […]

IL-17A = assay: ELISA of cytokine secretion by PBMC: IL-17A; assay type: cell-based, human; conditions: PMA added to cultured PBMC
Experimental: as §1, §2, §3, §4

IFN-γ = assay: ELISA of cytokine secretion by PBMC: IFN-γ; assay type: cell-based, human; conditions: PMA added to cultured PBMC
Experimental: as §1, §2, §3, §4

TNF-α = assay: ELISA of cytokine secretion by PBMC: TNF-α; assay type: cell-based, human; conditions: PMA added to cultured PBMC
Experimental: as §1, §2, §3, §4

GM-CSF = assay: ELISA of cytokine secretion by PBMC: GM-CSF; assay type: cell-based, human; conditions: PMA added to cultured PBMC
Experimental: as §1, §2, §3, §4

human COX-2 = molecular target: T1, human COX-2 (Homo sapiens, UniProt P35354); assay: in vitro COX-2 inhibition (arachidonic acid to PGE2, EIA); assay type: biochemical; conditions: read-out: % COX-2 Inhibition (Individual assay values)
T1 construct: host or cells: Sf21 insect cells
T1 sequence (P35354 18-604): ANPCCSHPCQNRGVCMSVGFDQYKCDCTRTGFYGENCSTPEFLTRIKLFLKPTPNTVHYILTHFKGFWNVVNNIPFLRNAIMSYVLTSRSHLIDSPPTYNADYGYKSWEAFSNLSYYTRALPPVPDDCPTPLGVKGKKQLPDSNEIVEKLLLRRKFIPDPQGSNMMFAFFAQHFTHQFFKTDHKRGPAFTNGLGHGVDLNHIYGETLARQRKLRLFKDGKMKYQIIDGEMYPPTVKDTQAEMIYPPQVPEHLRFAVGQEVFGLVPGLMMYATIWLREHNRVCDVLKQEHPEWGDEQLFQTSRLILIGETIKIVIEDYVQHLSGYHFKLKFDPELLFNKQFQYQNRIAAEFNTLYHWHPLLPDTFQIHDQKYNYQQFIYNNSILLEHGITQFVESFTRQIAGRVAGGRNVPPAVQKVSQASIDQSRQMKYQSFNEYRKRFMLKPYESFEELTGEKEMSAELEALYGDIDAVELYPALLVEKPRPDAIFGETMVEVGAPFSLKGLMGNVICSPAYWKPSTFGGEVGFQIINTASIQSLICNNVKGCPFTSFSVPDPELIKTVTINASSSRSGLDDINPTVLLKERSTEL
Experimental: Three separate preparations of the phyto-percolate were screened, using an in vitro assay, for COX-2 inhibition. Riendeau et al., Can. J. Physiol. […] Briefly, this assay measured to conversion of 0.3 μM arachidonic acid to PGE2 by human recombinant insect Sf21 cells expression human COX-2. The incubation buffer contained 100 mM Tris-HCl (pH 7.7), 1 mM glutathione, 1 μM hematin, and 500 μM phenol. PGE2 was quantified using an enzyme-linked immunoassay (EIA).
Sample 1 was a sample of diluted phyto-percolate concentrated approximately 100-fold by drying under N2. Sample 2 was prepared by drying a 4800 μl sample of diluted phyto-percolate under N2 and reconstituting it in 96 μl of ddH2O just prior to assay. Sample 3 was prepared by lyophilizing a 4800 μl sample of diluted phyto-percolate and reconstituting it in 96 μl of ddH2O just prior to assay. The concentrations of phyto-percolate used, 100×, 10×, and IX, refer to 10 μl, 1 μl, and 0.1 μl of sample, respectively, in a final assay volume of 100 μl. […] Each sample was assayed in at least three concentrations and the assays were performed in duplicate.

NF-κB = assay: EMSA of DNA-binding activity of NF-κB in cultured PBMC; assay type: cell-based, human; conditions: TNF-α (50 ng/ml) added one hour before harvesting
Experimental: as §1
Treatment agents for this exemplary method comprise three agents: unseparated phyto-percolate (‘PAZ’), fraction 3 (‘F3’), fraction 4 (‘F4’). Treatment concentration for each was 1:20 & 1:100. An exemplary sample preparation method for each agent by dilution is as follows: First, a 1:10 dilution is prepared by combining 0.7 ml agent (either PAZ, F3 or F4)+6.3 ml RPMI1640/5% FBS to obtain a total volume of 7 ml of a 1:10 solution. […]
Analysis of the effect of phyto-percolate or fractions isolated therefrom on the DNA-binding activity of NF-κB in the nuclear protein fractions of the cultured PBMC was determined as follows in this exemplary embodiment: approximately 18.26 mL of suspended PBMC were added to approximately 18 mL of culture medium and 2 mL of this cell suspension (2,718,000 cells in 2 mL) were seeded into each 60 mm culture dish. […]

[2] = 0 hours, oral dose 30 min before carrageenan, n=6

Row | Compound | paw volume, % change from control ([1]; 0 hours) | Mean paw volume ± SD [1, 2] [mL] | Mean paw volume ± SD ([1]; 2 hours) [mL] | paw volume, % change from control ([1]; 2 hours) | Mean paw volume ± SD ([1]; 4 hours) [mL] | paw volume, % change from control ([1]; 4 hours) | Mean paw volume ± SD ([1]; 6 hours) [mL] | paw volume, % change from control ([1]; 6 hours) | Mean paw volume ± SD ([1]; 8 hours) [mL] | paw volume, % change from control ([1]; 8 hours) | Mean paw volume ± SD ([1]; 20 hours) [mL] | paw volume, % change from control ([1]; 20 hours) | other results
1 | CC(=O)Oc1ccccc1C(=O)O [Aspirin, aspirin] | (1%) | 1.25 ± 0.08 | 2.22 ± 0.28 | (4%) | 2.07 ± 0.23 | (−10%) | 1.92 ± 0.18 | (−20%) | 1.80 ± 0.18 | (−25%) | 1.42 ± 0.16 | (−23%) | –
2 | COc1ccc2c(c1)c(CC(=O)O)c(C)n2C(=O)c1ccc(Cl)cc1 [Indomethacin, indomethacin] | (1%) | 1.25 ± 0.05 | 2.25 ± 0.23 | (7%) | 2.18 ± 0.22 | (1%) | 2.00 ± 0.22 | (−12%) | 1.83 ± 0.23 | (−22%) | 1.37 ± 0.10 | (−38%) | –
3 | CCCCCCCCCCCCCC(=O)O[C@@H]1[C@@H](C)[C@@]2(O)[C@@H](C=C(CO)C[C@]3(O)C(=O)C(C)=C[C@@H]23)[C@@H]2C(C)(C)[C@]12OC(C)=O [PMA, phorbol myristate acetate] | – | – | – | – | – | – | – | – | – | – | – | – | secretion of IL-2 (IL-2): approximately 125 pg/100,000 cells; secretion of IL-17A (IL-17A): approximately 3 pg/100,000 cells; secretion of IFN-γ (IFN-γ): approximately 70 pg/100,000 cells; secretion of TNF-α (TNF-α): approximately 50 pg/100,000 cells; secretion of GM-CSF (GM-CSF): approximately 50 pg/100,000 cells
4 | CS(=O)(=O)c1ccc(C2=C(c3ccccc3)C(=O)OC2)cc1 [rofecoxib] | – | – | – | – | – | – | – | – | – | – | – | – | inhibition at 0.01 µM (human COX-2): 11%; inhibition at 0.03 µM (human COX-2): 16%; inhibition at 0.1 µM (human COX-2): 33%; inhibition at 0.3 µM (human COX-2): 55%; inhibition at 1 µM (human COX-2): 88%
5 | TNF-α | – | – | – | – | – | – | – | – | – | – | – | – | DNA-binding activity of NF-κB, relative level (control = 1.0) (NF-κB): ~2.0
